Test results from patent US9045429B2, “Substituted phenoxypyridines” (Bayer Intellectual Property GmbH, priority 2010, dated 2015).

Assays:
[1] = tested on: A375 cells; test: A375 Crystal Violet (CV) Proliferation Assay [Assay 5]; format: cell-based; conditions: A-375, 96 h; A375 human melanoma cells (BRAF V600E), crystal violet staining, 4 days incubation
Protocol: Assay 5: A375 Crystal Violet (CV) Proliferation Assay:
Cell proliferation for A375 cells [human melanoma cell line, expressing mutant BRAF V600E] was measured by crystal violet (CV) staining: Cultivated human A375 cells were plated out in a density of 1500 cells/measurement point in 200 μl of growth medium (DMEM/HAMS F12 with 10% FBS and 2 mM Glutamine) in a 96-well multititer plate. After 24 hours, the cells from a plate (zero plate) were stained with crystal violet (see below), while the medium in the other plates was replaced by fresh culture medium (200 μl) to which the test substances had been added in various concentrations (0 μM, and in the range 0.3 nM-30 μM; the final concentration of the solvent dimethyl sulphoxide was 0.5%). The cells were incubated in the presence of the test substances for 4 days. The cell proliferation was determined by staining the cells with crystal violet: the cells were fixed by adding 20 μl/measurement point of an 11% glutaraldehyde solution at room temperature for 15 min. After the fixed cells had been washed three times with water, the plates were dried at room temperature. The cells were stained by adding 100 μl/measurement point of a 0.1% crystal violet solution (pH adjusted to pH 3 by adding acetic acid). After the stained cells had been washed three times with water, the plates were dried at room temperature. The dye was dissolved by adding 100 μl/measurement point of a 10% acetic acid solution, and the extinction was determined by photometry at a wavelength of 595 nm. The percentage change in cell growth was calculated by normalizing the measurements to the extinctions of the zero point plate (=0%) and the extinction of the untreated (0 μM) cells (=100%). The IC50 values were determined by means of a 4-parameter fit using the company's own software.

[2] = tested on: HCT116 cells; test: HCT116 Cell Titer Glo (CTG) Proliferation Assay [Assay 1]; format: cell-based; conditions: HCT-116, HCT116 human colorectal cells, 72 hours incubation
From the text: Cell Titer Glo Proliferation Assay
The adherent tumor cell proliferation assay used to test the compounds of the present invention involves a readout called Cell Titre-Glo developed by Promega (Cunningham, BA “A Growing Issue: Cell Proliferation Assays. Modern kits ease quantification of cell growth” The Scientist 2001, 15(13), 26, and Crouch, S P et al., “The use of ATP bioluminescence as a measure of cell proliferation and cytotoxicity” Journal of Immunological Methods 1993, 160, 8 1-88).
Assay 1: HCT116 Cell Titer Glo (CTG) Proliferation Assay:
(§1) HCT116 cells [human colorectal cell line, expressing mutant […]] were plated at a density of 3000 cells/well in 96 well black-clear bottom tissue culture plates (Costar 3603 black/clear bottom) in 100 μl/well DMEM medium (DMEM/Ham's F12) with 10% Fetal Bovine Serum (FBS) and stable Glutamine incubated at 37° C. Sister wells were plated in separate plate for time zero determination. All plates were incubated overnight at 37° C. Take down time zero plate: 100 μl/well CTG solution (Promega Cell Titer Glo solution) were added to time zero wells in sister plate; the plates were mixed for 2 min on orbital shaker to ensure cell lysis, incubated for 10 minutes, luminescence was read on VICTOR 3 (Perkin Elmer). Twenty-four hours after cell seeding, test compounds were diluted in 50 μl medium and were added at a final concentration range from as high 10 μM to as low 300 pM depending on the activities of the tested compounds in serial dilutions at a final DMSO concentration of 0.4%. Cells were incubated for 72 hours at 37° C. after addition of the test compound. Then, using a Promega Cell Titer Glo Luminescent® assay kit, 100 μl microliter lysis buffer containing of the enzyme luciferase and its substrate, luciferin mixture, were added to each well and incubated for 10 min at room temperature in the dark to stabilize luminescence signal. The samples were read on VICTOR 3 (Perkin Elmer) using Luminescence protocol. The percentage change in cell growth was calculated by normalizing the measurements to the extinctions of the zero point plate (=0%) and the extinction of the untreated (0 μM) cells (=100%). The IC50 values were determined by means of a 4-parameter fit using the company's own software.

[3] = tested on: A549 cells; test: A549 Cell Titer Glo (CTG) Proliferation Assay [Assay 2]; format: cell-based; conditions: A549 human non small cell lung cancer cells (K-Ras G12S), 72 hours incubation
Protocol: as §1
Assay 2: A549 Cell Titer Glo (CTG) Proliferation Assay:
A549 cells [human non small cell lung cancer cell line, expressing mutant K-Ras G12S] were seeded at a density of 2000 cells/well in 96 well black-clear bottom tissue culture plates (Costar 3603 black/clear bottom) in 100 μl/well DMEM medium (DMEM/Ham's F12) with 10% Fetal Bovine Serum (FBS) and stable Glutamine incubated at 37° C. Cell Titer Glo proliferation assays for A549 cells were performed with the same protocol as described afore for HCT116 cells.

[4] = tested on: MEK1/2; conditions: MEK1/2 inhibitor, literature [17]; cited from earlier work
[5] = tested on: colon cancer; conditions: oral treatment, mouse models, literature [18]; cited from earlier work

Row | Compound | IC50 [1] | IC50 [2] | IC50 [3] | IC50 [4] | colon cancer growth in vivo [5]
1 | NC(=O)c1c(Nc2ccc(I)cc2F)cncc1Oc1ccc2oc(=O)[nH]c2c1 [Example 1, 3-[(2-fluoro-4-iodophenyl)amino]-5-[(2-oxo-2,3-dihydro-1,3-benzoxazol-5-yl)oxy]isonicotinamide] | 2.31 nM | 45 nM | 59 nM | – | –
2 | NC(=O)c1c(Nc2ccc(I)cc2F)cncc1Oc1cccc(N)c1 [Example 3, 3-(3-aminophenoxy)-5-[(2-fluoro-4-iodophenyl)amino]isonicotinamide] | 0.676 nM | 214 nM | 377 nM | – | –
3 | CS(=O)(=O)Nc1cccc(Oc2cncc(Nc3ccc(I)cc3F)c2C(N)=O)c1 [Example 5, 3-[(2-fluoro-4-iodophenyl)amino]-5-{3-[(methylsulfonyl)amino]phenoxy}isonicotinamide] | 0.775 nM | 18.8 nM | 22.7 nM | – | –
4 | CC(C)(O)C(O)CCOc1cncc(Nc2ccc(I)cc2F)c1C(N)=O (stereo not shown) [Example 12, 3-[(3,4-dihydroxy-4-methylpentyl)oxy]-5-[(2-fluoro-4-iodophenyl)amino]isonicotinamide] | 33.3 nM | – | – | – | –
5 | COc1cncc(Nc2ccc(I)cc2F)c1C(N)=O [Example 15, 3-[(2-fluoro-4-iodophenyl)amino]-5-methoxyisonicotinamide] | 118 nM | – | – | – | –
6 | O=C(NOCC1CC1)c1ccc(F)c(F)c1Nc1ccc(I)cc1Cl [PD184352] | – | – | – | low nanomolar range | inhibit colon cancer growth

More lines, main results first:

Row | IC50 [1] | IC50 [2] | IC50 [3] | Compound | IC50 [4] | colon cancer growth in vivo [5]
7 | 0.411 nM | 11.1 nM | 14.3 nM | CC(C)S(=O)(=O)Nc1cccc(Oc2cncc(Nc3ccc(I)cc3F)c2C(N)=O)c1 [Example 4, 3-[(2-fluoro-4-iodophenyl)amino]-5-{3[(isopropylsulfonyl)amino]phenoxy}isonicotinamide] | – | –
8 | 15.3 nM | 11 nM | 14.8 nM | CCS(=O)(=O)Nc1cccc(Oc2cncc(Nc3ccc(I)cc3F)c2C(N)=O)c1 [Example 6, 3-{3-[(ethylsulfonyl)amino]phenoxy}-5-[(2-fluoro-4-iodophenyl)amino]isonicotinamide] | – | –
9 | 15.2 nM | 9.71 nM | 17 nM | NC(=O)c1c(Nc2ccc(I)cc2F)cncc1Oc1cccc(NS(=O)(=O)C2CC2)c1 [Example 7, 3-{3-[(cyclopropylsulfonyl)amino]phenoxy}-5-[(2-fluoro-4-iodophenyl)amino]isonicotinamide] | – | –
10 | 4.92 nM | 195 nM | 335 nM | CC(=O)Nc1cccc(Oc2cncc(Nc3ccc(I)cc3F)c2C(N)=O)c1 [Example 8, 3-(3-acetamidophenoxy)-5-[(2-fluoro-4-iodophenyl)amino]isonicotinamide] | – | –
11 | 8.8 nM | 440 nM | 882 nM | CCC(=O)Nc1cccc(Oc2cncc(Nc3ccc(I)cc3F)c2C(N)=O)c1 [Example 9, 3-[(2-fluoro-4-iodophenyl)amino]-5-[3-(propionylamino)phenoxy]isonicotinamide] | – | –
12 | 21.5 nM | 1120 nM | 1670 nM | CC(C)C(=O)Nc1cccc(Oc2cncc(Nc3ccc(I)cc3F)c2C(N)=O)c1 [Example 10, 3-[(2-fluoro-4-iodophenyl)amino]-5-[3-(isobutyrylamino)phenoxy]isonicotinamide] | – | –
13 | 1.25 nM | 33.6 nM | 49.8 nM | C#Cc1ccc(Nc2cncc(Oc3cccc(NS(=O)(=O)CC)c3)c2C(N)=O)c(F)c1 [Example 14, 3-{3-[(ethylsulfonyl)amino]phenoxy}-5-[(4-ethynyl-2-fluorophenyl)amino]isonicotinamide] | – | –
